According to patent publication US7169786B2, “Isoxazoline derivatives as anti-depressants” (priority 2001, dated 2007):
Like-named read-outs stand apart in the source and are kept apart here.

Legend:
h5-HT transporter = molecular target: T1, h5-HT transporter (Homo sapiens, UniProt P31645); experiment: Radioligand binding experiment for 5-HT transporter ([3H]paroxetine, human platelet membranes)
T1 construct: Human platelet membranes (Oceanix Biosciences Corporation, Hanover, Md., USA) were thawed; tissue Oceanix Biosciences Corporation, Hanover, Md., USA; host or cells: human platelet membranes
Description: (§1) The interaction of the compounds of Formula (I) with hα2-receptors and h5-HT-transporters was assessed in in vitro radioligand binding experiments. In general, a low concentration of a radioligand with a high binding affinity for a particular receptor or transporter is incubated with a sample of a tissue preparation enriched in a particular receptor or transporter or with a preparation of cells expressing cloned human receptors in a buffered medium. During the incubation, the radioligand binds to the receptor or transporter. When equilibrium of binding is reached, the receptor bound radioactivity is separated from the non-bound radioactivity, and the receptor- or transporter-bound activity is counted. The interaction of the test compounds with the receptor is assessed in competition binding experiments. Various concentrations of the test compound are added to the incubation mixture containing the receptor- or transporter preparation and the radioligand. The test compound in proportion to its binding affinity and its concentration inhibits binding of the radioligand. The radioligand used for hα2A, hα2B and hα2C receptor binding was [^3H]-raulwolscine and for the h5-HT transporter was [^3H]paroxetine.
Human platelet membranes (Oceanix Biosciences Corporation, Hanover, Md., USA) were thawed, diluted in buffer (Tris-HCl 50 mM, 120 mM NaCl and 5 mM KCl) and quickly (max 3 s) homogenised with an Ultraturrax homogenizer. […] Filters were rinsed extensively with ice-cold buffer and radioactivity on the filters was counted in a Topcount liquid scintillation counter (Packard, Meriden, Conn.). Data were expressed as cpm. Imipramine (at 1 μM final concentration) was used to determine the non-specific binding.
(§2) Data from assays in the presence of compound were calculated as a percentage of total binding measured in the absence of test compound. Inhibition curves, plotting percent of total binding versus the log value of the concentration of the test compound, were automatically generated, and sigmoidal inhibition curves were fitted using non-linear regression. The pIC50 values of test compounds were derived from individual curves.

hα2C receptor = molecular target: T2, hα2C receptor (Homo sapiens, UniProt P18825); experiment: Radioligand binding experiment for hα2C receptor ([3H]-raulwolscine)
T2 construct: expressed in transfected cells
T2 sequence (P18825 1-462): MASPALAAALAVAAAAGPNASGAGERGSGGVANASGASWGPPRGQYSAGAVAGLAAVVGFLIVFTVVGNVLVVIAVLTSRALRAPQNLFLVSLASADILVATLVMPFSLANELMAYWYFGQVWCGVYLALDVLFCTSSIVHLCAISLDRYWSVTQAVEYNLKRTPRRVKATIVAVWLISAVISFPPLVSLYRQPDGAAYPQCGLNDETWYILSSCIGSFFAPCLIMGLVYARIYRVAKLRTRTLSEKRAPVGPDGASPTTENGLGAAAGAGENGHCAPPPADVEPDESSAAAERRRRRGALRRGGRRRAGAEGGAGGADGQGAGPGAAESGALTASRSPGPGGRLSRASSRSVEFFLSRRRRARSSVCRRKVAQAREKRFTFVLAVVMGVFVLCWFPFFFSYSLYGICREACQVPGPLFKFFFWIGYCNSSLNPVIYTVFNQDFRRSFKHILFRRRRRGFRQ
Description: as §1
(§3) CHO cells, stabile transfected with human adrenergic-α2A-, -α2B or α2C receptor cDNA, were cultured in Dulbecco's Modified Eagle's Medium (DMEM)/Nutrient mixture Ham's F12 (ratio 1:1)(Gibco, Gent-Belgium) supplemented with 10% heat inactivated fetal calf serum (Life Technologies, Merelbeke-Belgium) and antibiotics (100 IU/ml penicillin G, 100 μg/ml streptomycin sulphate, 110 μg/ml pyruvic acid and 100 μg/ml L-glutamine). One day before collection, cells were induced with 5 mM sodiumbutyrate. Upon 80–90% of confluence, cells were scraped in phosphate buffered saline without Ca^2+ and Mg^2+ and collected by centrifugation at 1500×g for 10 min. The cells were homogenised in Tris-HCl 50 mM using an Ultraturrax homogenizer and centrifuged for 10 min at 23,500×g. The pellet was washed once by resuspension and rehomogenization and the final pellet was resuspended in Tris-HCl, divided in 1 ml aliquots and stored at −70° C.
(§4) Membranes were thawed and re-homogenized in incubation buffer (glycylglycine 25 mM, pH 8.0). […] Filters were rinsed extensively with ice-cold rinsing buffer (Tris-HCl 50 mM pH 7.4). Filter-bound radioactivity was determined by scintillation counting in a Topcount (Packard, Meriden, Conn.) and results were expressed as counts per minute (cpm). Non-specific binding was determined in the presence of 1 μM oxymetazoline for hα2A- and hα2B receptors and 1 μM spiroxatrine for hα2C receptors.
as §2

hα2B receptor = molecular target: T3, hα2B receptor (Homo sapiens, UniProt P18089); experiment: Radioligand binding experiment for hα2B receptor ([3H]-raulwolscine)
T3 construct: expressed in transfected cells
T3 sequence (P18089 1-450): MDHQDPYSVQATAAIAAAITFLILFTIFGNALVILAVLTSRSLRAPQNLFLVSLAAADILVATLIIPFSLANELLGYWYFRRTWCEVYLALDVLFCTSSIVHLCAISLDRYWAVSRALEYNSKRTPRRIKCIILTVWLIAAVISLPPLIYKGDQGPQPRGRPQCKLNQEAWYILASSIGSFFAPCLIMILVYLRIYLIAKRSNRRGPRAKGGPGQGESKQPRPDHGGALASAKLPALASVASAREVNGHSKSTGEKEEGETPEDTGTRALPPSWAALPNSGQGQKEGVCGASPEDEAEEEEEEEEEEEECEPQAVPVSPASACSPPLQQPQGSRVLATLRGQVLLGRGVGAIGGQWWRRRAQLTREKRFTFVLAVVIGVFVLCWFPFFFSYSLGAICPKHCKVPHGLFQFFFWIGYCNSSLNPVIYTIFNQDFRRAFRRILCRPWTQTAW
Description: as §1, §3, §4, §2

[1] = human platelet membranes, [3H]paroxetine 0.5 nM, read-out: 5HTT pIC50 (converted)
[2] = membranes of CHO cells expressing human α2C receptor, [3H]raulwolscine 1 nM, read-out: hα2C pIC50 (converted)
[3] = membranes of CHO cells expressing human α2B receptor, [3H]raulwolscine 1 nM, read-out: hα2B pIC50 (converted)
[4] = hα2C pIC50, membranes of CHO cells expressing human α2C receptor, [3H]raulwolscine 1 nM
[5] = read-out: hα2B pIC50 (converted)
[6] = read-out: 5HTT pIC50 (converted)
[7] = read-out: hα2C pIC50 (converted)
[8] = membranes of CHO cells expressing human α2B receptor, [3H]raulwolscine 1 nM
[9] = human platelet membranes, [3H]paroxetine 0.5 nM
[10] = membranes of CHO cells expressing human α2C receptor, [3H]raulwolscine 1 nM

T1 sequence (P31645 whole entry): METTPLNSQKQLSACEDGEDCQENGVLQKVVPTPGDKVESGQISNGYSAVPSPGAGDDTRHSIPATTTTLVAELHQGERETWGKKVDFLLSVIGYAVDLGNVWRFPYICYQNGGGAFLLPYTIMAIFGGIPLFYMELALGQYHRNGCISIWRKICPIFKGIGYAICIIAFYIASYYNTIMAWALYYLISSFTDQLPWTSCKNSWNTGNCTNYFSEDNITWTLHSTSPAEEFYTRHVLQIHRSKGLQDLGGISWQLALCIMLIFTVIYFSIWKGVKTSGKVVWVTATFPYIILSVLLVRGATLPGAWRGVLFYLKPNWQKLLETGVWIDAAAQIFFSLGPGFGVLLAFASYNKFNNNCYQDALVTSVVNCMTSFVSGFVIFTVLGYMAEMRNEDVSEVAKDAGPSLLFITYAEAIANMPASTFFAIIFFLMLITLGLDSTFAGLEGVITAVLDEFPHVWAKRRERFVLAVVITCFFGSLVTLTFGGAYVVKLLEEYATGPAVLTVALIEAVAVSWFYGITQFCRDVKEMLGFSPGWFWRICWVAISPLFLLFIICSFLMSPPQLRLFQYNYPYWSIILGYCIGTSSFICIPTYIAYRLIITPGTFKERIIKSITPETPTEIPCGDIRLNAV

COc1cc2c(cc1OC)C1=NOC(CN3CCN(Cc4ccc([N+](=O)[O-])cc4)CC3)C1CO2 (stereo not shown) [Compound 81]
IC50 (h5-HT transporter; [1]): 145 nM
IC50 (hα2C receptor; [2]): 1000 nM

COc1cc2c(cc1OC)C1=NOC(CN3CCN(C/C(C)=C/c4ccccc4)CC3)C1CO2 (single isomer, unassigned) [Compound 129]
IC50 (hα2B receptor; [3]): 9.77 nM
IC50 (hα2C receptor; [2]): 6.76 nM

COc1cc2c(cc1OC)C1=NOC(CN3CCN(CC=C(C)c4ccccc4)CC3)C1CN2 (stereo not shown) [Compound 379]
IC50 (hα2B receptor; [3]): 19.5 nM
IC50 (h5-HT transporter; [1]): 34.7 nM
IC50 (hα2C receptor; [2]): 40.7 nM

CCNC(=O)Oc1ccc2c(c1)OCC1C2=NOC1CN1CCN(CC(C)=Cc2ccccc2)CC1 (stereo not shown) [Compound 238]
IC50 (hα2B receptor; hα2B pIC50, membranes of CHO cells expressing human α2B receptor, [3H]raulwolscine 1 nM): 2.4 nM
IC50 (h5-HT transporter; 5HTT pIC50): 8.51 nM
IC50 (hα2C receptor; [4]): 2.57 nM

COc1cc2c(cc1OC)C1=NOC(CN3CCN(Cc4ccc5ccccc5c4)CC3)C1CO2 (single isomer, unassigned) [Compound 16]
IC50 (hα2B receptor; [5]): 6.17 nM
IC50 (h5-HT transporter; [6]): 3.72 nM
IC50 (hα2C receptor; [7]): 6.76 nM

CC(=Cc1ccccc1)CN1CCN(CC2ON=C3c4ccc(OCCN(C)C)cc4OCC32)CC1 (stereo not shown) [Compound 242]
IC50 (hα2B receptor; [3]): 0.363 nM
IC50 (h5-HT transporter; [1]): 11.2 nM

COCCOc1ccc2c(c1)OCC1C2=NOC1CN1CCN(CC(C)=Cc2ccccc2)CC1 (stereo not shown) [Compound 239]
IC50 (hα2B receptor; [3]): 2.4 nM
IC50 (h5-HT transporter; [1]): 14.1 nM
IC50 (hα2C receptor; [2]): 0.288 nM

COc1cc2c(cc1OC)C1=NOC(CN3CCN(Cc4ccc5ccccc5c4)CC3)C1CN2 (stereo not shown) [Compound 272]
IC50 (hα2B receptor; [3]): 26.9 nM
IC50 (h5-HT transporter; [6]): 4.79 nM
IC50 (hα2C receptor; [2]): 135 nM

CCNC(=O)Oc1cc2c(cc1OC)C1=NOC(CN3CCN(C/C(C)=C/c4ccccc4)CC3)C1CO2 (single isomer, unassigned) [Compound 340]
IC50 (h5-HT transporter; 5HTT pIC50): 22.9 nM
IC50 (hα2C receptor; [4]): 3.8 nM

CC(=Cc1ccccc1)CN1CCN(CC2ON=C3c4ccc(OC5CCCC5)cc4OCC32)CC1 (stereo not shown) [Compound 243]
hα2B pIC50 (hα2B receptor; [8]): 7.77
5HTT pIC50 (h5-HT transporter; [9]): 6.75
hα2C pIC50 (hα2C receptor; [10]): 8.29

CC(=Cc1ccccc1)CN1CCN(CC2ON=C3c4ccc(O)cc4OCC32)CC1 (stereo not shown) [Compound 237]
IC50 (hα2B receptor; [3]): 1.26 nM
IC50 (h5-HT transporter; [1]): 11.5 nM
IC50 (hα2C receptor; [2]): 1.17 nM

COc1cc2c(cc1OC)C1=NOC(CN3CCN(CC=Cc4cccc(F)c4)CC3)C1CN2 (stereo not shown) [Compound 351]
hα2B pIC50 (hα2B receptor; [8]): 8.16
5HTT pIC50 (h5-HT transporter; [9]): 8.06
hα2C pIC50 (hα2C receptor; [10]): 8.19

COc1cc2c(cc1OC)C1=NOC(CN3CCN(CC(C)=Cc4ccccc4)CC3)C1CN2 (single isomer, unassigned) [Compound 253]
hα2B pIC50 (hα2B receptor; [8]): 7.94
5HTT pIC50 (h5-HT transporter; [9]): 6.60
hα2C pIC50 (hα2C receptor; [10]): 7.98

COc1cc2c(cc1OC)C1=NOC(CN3CCN(Cc4cccc(C#N)c4)CC3)C1CO2 (stereo not shown) [Compound 97]
IC50 (h5-HT transporter; [1]): 355 nM
IC50 (hα2C receptor; [2]): 1000 nM

COc1ccc2c(c1)OCC1C2=NOC1CN1CCN(CC=Cc2ccccc2)CC1 (stereo not shown) [Compound 217]
IC50 (hα2B receptor; [3]): 6.17 nM
IC50 (h5-HT transporter; [1]): 53.7 nM
IC50 (hα2C receptor; [7]): 14.1 nM

C=CC(=O)Oc1ccc2c(c1)OCC1C2=NOC1CN1CCN(CC(C)=Cc2ccccc2)CC1 (stereo not shown) [Compound 251]
hα2B pIC50 (hα2B receptor; [8]): 8.31
5HTT pIC50 (h5-HT transporter; [9]): 6.89
hα2C pIC50 (hα2C receptor; [10]): 8.26

c1ccc2c(c1)NCC1C2=NOC1CN1CCN(Cc2ccc3ccccc3c2)CC1 (stereo not shown) [Compound 9]
IC50 (hα2B receptor; [3]): 4.68 nM
IC50 (h5-HT transporter; [1]): 1.58 nM
IC50 (hα2C receptor; [2]): 107 nM

COc1cc2c(cc1OC)C1=NOC(CN3CCN(C/C=C/c4ccccc4)CC3)C1CO2 (single isomer, unassigned) [Compound 8]
IC50 (hα2B receptor; [5]): 7.24 nM
IC50 (h5-HT transporter; [6]): 17.8 nM

CC(=Cc1ccccc1)CN1CCN(CC2ON=C3c4ccc(OC(=O)C(C)(C)C)cc4OCC32)CC1 (stereo not shown) [Compound 329]
IC50 (hα2B receptor; [3]): 27.5 nM
IC50 (h5-HT transporter; [6]): 33.1 nM
IC50 (hα2C receptor; [7]): 18.2 nM

COc1cc2c(cc1OC)C1=NOC(CN3CCN(Cc4ccc5ccccc5c4)CC3)C1CN2 (stereo not shown) [Compound 15]
IC50 (hα2B receptor; [3]): 14.5 nM
IC50 (h5-HT transporter; [6]): 17 nM
IC50 (hα2C receptor; [2]): 11.5 nM

O=C(N1CC2C(=NOC2CN2CCN(CC=Cc3ccccc3)CC2)c2ccccc21)C(F)(F)F (stereo not shown) [Compound 224]
hα2B pIC50 (hα2B receptor; [8]): 7.66
5HTT pIC50 (h5-HT transporter; [9]): 7.31
hα2C pIC50 (hα2C receptor; [10]): 7.13

CCOC(=O)N1CC2C(=NOC2CN2CCN(CC=Cc3ccccc3)CC2)c2ccccc21 (stereo not shown) [Compound 226]
hα2B pIC50 (hα2B receptor; [8]): 7.09
5HTT pIC50 (h5-HT transporter; [9]): 8.08
hα2C pIC50 (hα2C receptor; [10]): 6.96

COc1cc2c(cc1OC)C1=NOC(CN3CCN(C/C=C(\C)c4ccccc4)CC3)C1CO2 (single isomer, unassigned) [Compound 320]
IC50 (hα2B receptor; [5]): 20 nM
IC50 (h5-HT transporter; [6]): 32.4 nM
IC50 (hα2C receptor; [7]): 6.76 nM

COc1cc2c(cc1OC)C1=NOC(CN3CCN(C/C=C/c4ccccc4)CC3)C1CO2 (single isomer, unassigned) [Compound 1]
IC50 (hα2B receptor; [5]): 3.24 nM
IC50 (h5-HT transporter; [6]): 5.13 nM

CC(=Cc1ccccc1)CN1CCN(CC2ON=C3c4ccccc4NCC32)CC1 (stereo not shown) [Compound 234]
hα2B pIC50 (hα2B receptor; [8]): 8.88
5HTT pIC50 (h5-HT transporter; [9]): 7.71
hα2C pIC50 (hα2C receptor; [10]): 8.41

COc1cc2c(cc1OC)C1=NOC(CN3CCN(Cc4ccccc4C(F)(F)F)CC3)C1CO2 (stereo not shown) [Compound 79]
IC50 (h5-HT transporter; [1]): 1000 nM
IC50 (hα2C receptor; [2]): 1000 nM

CC(=Cc1ccccc1)CN1CCN(CC2ON=C3c4ccc(OC(=O)C5CC5)cc4OCC32)CC1 (stereo not shown) [Compound 250]
IC50 (hα2B receptor; [3]): 6.76 nM
IC50 (h5-HT transporter; [1]): 81.3 nM
IC50 (hα2C receptor; [7]): 3.31 nM
